Measured values reported in patent US12319690B2, “Selective CDK 4/6 inhibitor cancer therapeutics” (LUNELLA BIOTECH, INC., priority 2019, dated 2025).

Columns and labels:
Assay type in all cases: cell-based, human
[1] = system: hTERT-BJ1 (immortalized non-tumoral fibroblast cell line); assay: 2D-cell viability assay (Hoechst staining), hTERT-BJ1 monolayer; conditions: for IC50: Homo sapiens, Fibroblast, 2D-cell viability assay, hTERT-BJ1; for SI (BJ1/MCF7 monolayer): cancer selectivity index, ratio between IC50 values in cell viability assays against MCF7 and hTERT-BJ1
Text: (§1) As used in the tables, “IC50 (MCF7 mammosphere)” refers to the half maximal inhibitory concentration in the 3D-mammosphere assay, using the ER+ breast cancer cell line, MCF7. The term “IC50 (MCF7 monolayer)” refers to the half maximal inhibitory concentration in the 2D-cell viability assay, using the ER+ breast cancer cell line, MCF7. The term “IC50 (BJ1 monolayer)” refers to the half maximal inhibitory concentration in the 2D-cell viability assay, using the immortalized non-tumoral fibroblast cell line, hTERT-BJ1. The term “SI (mammosphere/monolayer MCF7)” refers to the mammosphere selectivity index, a ratio between IC50 values comparing the biological activity in the 3D and 2D assays against MCF7. The term “SI (BJ1/MCF7 monolayer)” refers to the cancer selectivity index, a ratio between IC50 values comparing the biological activity in the cell viability assays against MCF7 and hTERT-BJ1. A Hoechst-based viability assay was used to characterize the selectivity of compounds according to the present approach, for the preferential targeting of cancer cells. Briefly, MCF7 cell monolayers were treated with a compound at concentrations ranging from 1 μM to 100 μM, for a period of one day. Cell viability was assessed using Hoechst 33342, a nuclear dye that stains DNA in live cells. The viability of normal human fibroblasts (hTERT-BJ1) treated with the compounds described herein was also assessed in parallel. Quantitation was performed with a plate-reader.

[2] = system: MCF7 cell line (ER+ breast cancer); assay: 3D-mammosphere formation assay; conditions: for IC50: Homo sapiens, MCF7, 3D-mammosphere assay; for SI (mammosphere/monolayer MCF7): mammosphere selectivity index, ratio between IC50 values in the 3D and 2D assays against MCF7; for inhibition of MCF7 cells in the mammosphere assay compared to parent compound: concentrations from 1 μM to 100 μM
Text: As used in the tables, “IC50 (MCF7 mammosphere)” refers to the half maximal inhibitory concentration in the 3D-mammosphere assay, using the ER+ breast cancer cell line, MCF7. The term “IC50 (MCF7 monolayer)” refers to the half maximal inhibitory concentration in the 2D-cell viability assay, using the ER+ breast cancer cell line, MCF7. The term “IC50 (BJ1 monolayer)” refers to the half maximal inhibitory concentration in the 2D-cell viability assay, using the immortalized non-tumoral fibroblast cell line, hTERT-BJ1. The term “SI (mammosphere/monolayer MCF7)” refers to the mammosphere selectivity index, a ratio between IC50 values comparing the biological activity in the 3D and 2D assays against MCF7. The term “SI (BJ1/MCF7 monolayer)” refers to the cancer selectivity index, a ratio between IC50 values comparing the biological activity in the cell viability assays against MCF7 and hTERT-BJ1.
FIGS. 1-3 are dose-response curves for various compounds described herein, using the mammosphere assay. The assay was performed using the MCF7 cell line. The curves are plotted as a mean of two independent experiments, and the standard deviation for each point is represented by vertical bars. The inhibition percentage is shown as a function of the log of the concentration (μM). […] Similar effects are expected for compounds having the general formula [1D].
Mammosphere formation assay: A single cell suspension was prepared using enzymatic (1× Trypsin-EDTA, Sigma Aldrich, cat. #T3924), and manual disaggregation (25 gauge needle). Five thousand cells were plated with in mammosphere medium (DMEM-F12/B27/20 ng/ml EGF/PenStrep), under non-adherent conditions, in six wells plates coated with 2-hydroxyethylmethacrylate (poly-HEMA, Sigma, cat. #P3932). Cells were grown for 5 days and maintained in a humidified incubator at 37° C. at an atmospheric pressure in 5% (v/v) carbon dioxide/air. After 5 days, 3D spheroids with a diameter greater than 50 μm were counted using a microscope, fitted with a graticule eye-piece, and the percentage of cells which formed spheroids was calculated and normalized to one (1=100% MFE; mammosphere forming efficiency). Mammosphere assays were performed in triplicate and repeated three times independently.

[3] = system: MCF7 cell line (ER+ breast cancer); assay: 2D-cell viability assay (Hoechst staining), MCF7 monolayer; conditions: for IC50: Homo sapiens, MCF7, 2D-cell viability assay, MCF7
Text: as §1

IC50 ([2]; MCF7) [nM] | IC50 [3] [nM] | Compound | IC50 ([1]; Table 3, unit inferred) [nM] | SI (BJ1/MCF7 monolayer) [1] | SI (mammosphere/monolayer MCF7) [2] | IC50 [1] [nM] | inhibition of cell propagation ([2]; at concentrations as low as 1 μM, preliminary laboratory evaluations) [%] | inhibition of MCF7 cells in the mammosphere assay compared to parent compound [2] | fold improvement in potency in the 3D-mammosphere assay compared to the parent compound ([2]; vs. Ribociclib, MCF7) [fold] | potency against MCF7 cells compared to parent compound (dose-response curves) ([3]; Hoechst staining assay, MCF7, FIG. 4 (FIG. 1 cited in same passage)) | non-toxic in the 2D-cell viability assay up to a concentration ([3]; MCF7 monolayer) [µM] | potency on hTERT-BJ1 compared to Compound [1C] (dose-response curves) ([1]; Hoechst staining assay, hTERT-BJ1, FIG. 7)
< 40 | 11000 | CCN1CCN(Cc2ccc(Nc3ncc(F)c(-c4cc(F)c5nc(C)n(C(C)C)c5c4)n3)nc2)CC1 [Abemaciclib] | 30000 ± 6000 | 2.7 | >50 | – | – | – | – | – | – | –
~200 | ~2000 | CCCCCCCCCCCCCC(=O)N1CCN(c2ccc(Nc3ncc4cc(C(=O)N(C)C)n(C5CCCC5)c4n3)nc2)CC1 [Compound [1C], 7-cyclopentyl-N,N-dimethyl-2-[[5-(4-tetradecanoylpiperazin-1-yl)-2-pyridyl]amino]pyrrolo[2,3-d]pyrimidine-6-carboxamide] | – | >45 | 10 | > 90000 | ~100 | remarkably improved inhibition | 7 | more potent | – | –
~5100 | > 30000 | CCCCCCCCCCCCCC(=O)N1CCN(c2ccc(Nc3ncc4c(C)c(C(C)=O)c(=O)n(C5CCCC5)c4n3)nc2)CC1 [Compound [2C], 6-acetyl-8-cyclopentyl-5-methyl-2-[[5-(4-tetradecanoylpiperazin-1-yl)-2-pyridyl]amino]pyrido[2,3-d]pyrimidin-7-one] | – | – | >5 | > 90000 | – | remarkably improved inhibition | – | – | ≤ 30 | –
~200 | ~100 | CC(=O)c1c(C)c2cnc(Nc3ccc(N4CCNCC4)cn3)nc2n(C2CCCC2)c1=O [Palbociclib, 6-acetyl-8-cyclopentyl-5-methyl-2-(5-piperazin-1-yl-pyridin-2-ylamino)-8H-pyrido[2,3-d]pyrimidin-7-one] | – | >900 | non-selective | > 90000 | – | – | – | – | – | –
~1500 | ~2000 | CN(C)C(=O)c1cc2cnc(Nc3ccc(N4CCNCC4)cn3)nc2n1C1CCCC1 [Ribociclib, 7-cyclopentyl-N,N-dimethyl-2-[(5-piperazin-1-ylpyridin-2-yl)amino]pyrrolo[2,3-d]pyrimidine-6-carboxamide] | – | >45 | 1.3 | > 90000 | – | – | – | – | – | more potent at most concentrations tested
